Where two headings read alike, the source gives them in different places. Starred links: 1 amine or outer side, 2 acyl side, 3 side chain; linkers in the order of their positions; H or OH if unused. Positions of bridges follow the written chain, without caps; N, C: chain ends. Non-standard residues stand in square brackets, D forms with d. Residues, ends and D or L forms follow the SMILES beside them. *: point of attachment. X1 = O=C([C@@H]1C[C@H](N[*:3])CN1[*:1])[*:2]; oXylylene = c1ccc(C[*:2])c(C[*:1])c1; Stearoyl = CCCCCCCCCCCCCCCCCC(=O)*
Target: Keap1-Maltose Binding Protein (MBP tag) (Homo sapiens, UniProt Q14145)
Assay: Nrf2-Keap1 HTRF (TR-FRET) binding assay: displacement of biotinylated ETGE peptide from Keap1-MBP
[1] = HTRF (TR-FRET), displacement of ETGE-biotin from Keap1-MBP, values banded into grades, read-out: Binding (IC50) ETGE-Keap1

Keap1-Maltose Binding Protein (MBP tag), sequence (Q14145 whole entry): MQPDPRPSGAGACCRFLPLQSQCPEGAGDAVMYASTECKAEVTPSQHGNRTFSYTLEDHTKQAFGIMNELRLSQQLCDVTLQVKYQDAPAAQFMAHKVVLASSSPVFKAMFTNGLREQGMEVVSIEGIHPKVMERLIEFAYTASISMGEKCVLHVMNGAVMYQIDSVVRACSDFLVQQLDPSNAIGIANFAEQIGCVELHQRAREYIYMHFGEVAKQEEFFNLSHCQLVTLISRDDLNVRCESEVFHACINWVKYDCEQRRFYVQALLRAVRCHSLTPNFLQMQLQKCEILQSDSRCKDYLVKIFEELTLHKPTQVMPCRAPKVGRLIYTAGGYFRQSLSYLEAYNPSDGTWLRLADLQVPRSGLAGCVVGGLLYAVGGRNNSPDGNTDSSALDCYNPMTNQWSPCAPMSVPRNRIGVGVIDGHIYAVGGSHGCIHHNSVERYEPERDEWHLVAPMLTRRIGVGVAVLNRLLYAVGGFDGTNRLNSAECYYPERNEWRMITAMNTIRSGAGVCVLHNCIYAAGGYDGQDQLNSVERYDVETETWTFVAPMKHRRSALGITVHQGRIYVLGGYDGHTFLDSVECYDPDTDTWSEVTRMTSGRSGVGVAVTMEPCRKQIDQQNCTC

Compound | IC50 [nM] | IC50 [1] [nM]
CCCCCCCCCCCCCCCCCC(=O)N[C@H]1C[C@H]2C(=O)N[C@@H](CCC(N)=O)C(=O)N[C@H]3CSCc4cccc(c4)CSC[C@H](NC(=O)[C@H](CCC(=O)O)NC(=O)CNC(=O)[C@H]([C@@H](C)O)NC(=O)[C@H](CCC(=O)O)NC(=O)[C@@H]4CCCN4C(=O)[C@H](CC(=O)O)NC3=O)C(=O)N[C@@H](CC(C)C)C(=O)N3CCC[C@@H]3C(=O)N2C1 [Example 74, {[&^1Pro((4S)-NH-Stearyl)-Gln-Cys(&^2)-Asp-Pro-Glu-Thr-Gly-Glu-Cys(&^3)-Leu-D-Pro&^1][&^2(1,3-phenylenediyl)dimethylene&^3]}] | < 1 | –
CCCCCCCCCCCCCCCCCC(=O)N[C@H]1C[C@@H](C(=O)N[C@@H](CCC(N)=O)C(=O)N[C@H]2CSCc3ccccc3CSC[C@@H](C(=O)N[C@@H](CC(C)C)C(=O)N3CCC[C@@H]3C(N)=O)NC(=O)[C@H](CCC(=O)O)NC(=O)CNC(=O)[C@H]([C@@H](C)O)NC(=O)[C@H](CCC(=O)O)NC(=O)[C@@H]3CCCN3C(=O)[C@H](CC(=O)O)NC2=O)N(C(C)=O)C1 [Example 75, {[Acetyl-Pro((4S)-NH-Stearyl)-Gln-Cys(&^1)-Asp-Pro-Glu-Thr-Gly-Glu-Cys(&^2)-Leu-D-Pro-NH2][&^1(1,2-phenylenediyl)dimethylene^2]}] | 1 to 100 | –
CCCCCCCCCCCCCCCCCC(=O)N1CCC[C@H]1C(=O)N[C@@H](CCC(N)=O)C(=O)N[C@H]1CSCc2ccccc2CSC[C@@H](C(=O)N[C@@H](CC(C)C)C(=O)N2CCC[C@@H]2C(N)=O)NC(=O)[C@H](CCC(=O)O)NC(=O)CNC(=O)[C@H]([C@@H](C)O)NC(=O)[C@H](CCC(=O)O)NC(=O)[C@@H]2CCCN2C(=O)[C@H](CC(=O)O)NC1=O [Example 76, {[Stearyl-Pro-Gln-Cys(&^1)-Asp-Pro-Glu-Thr-Gly-Glu-Cys(&^2)-Leu-D-Pro-NH2][&^1(1,2-phenylenediyl)dimethylene^2]}] (Stearoyl-PQCDPETGECL[dP]-NH2; linker 3-10 via oXylylene) | 1 to 100 | –
CCCCCCCCCCCCCCCCCC(=O)N[C@H]1C[C@H]2C(=O)N[C@@H](CCC(N)=O)C(=O)N[C@H]3CSCc4ccccc4CSC[C@H](NC(=O)[C@H](CCC(=O)O)NC(=O)CNC(=O)[C@H]([C@@H](C)O)NC(=O)[C@H](CCC(=O)O)NC(=O)[C@@H]4CSCN4C(=O)[C@H](CC(=O)O)NC3=O)C(=O)N[C@@H](CC(C)C)C(=O)N3CCC[C@@H]3C(=O)N2C1 [Example 78, {[&^1Pro((4S)-NH-Stearyl)-Gln-Cys(&^2)-Asp-Thz-Glu-Thr-Gly-Glu-Cys(&^3)-Leu-D-Pro&^1][&^2(1,2-phenylenediyl)dimethylene&^3]}] | – | < 1
CCCCCCCCCCCCCC(=O)N[C@H]1C[C@H]2C(=O)N[C@@H](CCC(N)=O)C(=O)N[C@H]3CSCc4ccccc4CSC[C@H](NC(=O)[C@H](CCC(=O)O)NC(=O)CNC(=O)[C@H]([C@@H](C)O)NC(=O)[C@H](CCC(=O)O)NC(=O)[C@@H]4CCCN4C(=O)[C@H](CC(=O)O)NC3=O)C(=O)N[C@@H](CC(C)C)C(=O)N3CCC[C@@H]3C(=O)N2C1 [Example 80, {[&^1Pro((4S)-NH-Miristoyl)-Gln-Cys(&^2)-Asp-Pro-Glu-Thr-Gly-Glu-Cys(&^3)-Leu-D-Pro&^1][&^2(1,2-phenylenediyl)dimethylene&^3]}] | < 1 | –
CCCCCCCCCCCCCCCCCC(=O)N[C@H]1C[C@H]2C(=O)N[C@@H](CCC(N)=O)C(=O)N[C@H]3CSCc4ccccc4CSC[C@H](NC(=O)[C@H](CCC(=O)O)NC(=O)CNC(=O)[C@H]([C@@H](C)O)NC(=O)[C@H](CCC(=O)O)NC(=O)[C@@H]4CCCN4C(=O)[C@H](CC(=O)O)NC3=O)C(=O)N[C@@H](CCCCN)C(=O)N3CCC[C@@H]3C(=O)N2C1 [Example 82, {[&^1Pro((4S)-NH-Stearyl)-Gln-Cys(&^2)-Asp-Pro-Glu-Thr-Gly-Glu-Cys(&^3)-Lys-D-Pro&^1][&^2(1,2-phenylenediyl)dimethylene&^3]}] (cyclo(CDPETGECK[dP][X1](Stearoyl)Q); linker 1-8 via oXylylene) | 1 to 100 | –
CCCCCCCCCCCCCCCC(=O)N[C@H]1C[C@H]2C(=O)N[C@@H](CCC(N)=O)C(=O)N[C@H]3CSCc4ccccc4CSC[C@H](NC(=O)[C@H](CCC(=O)O)NC(=O)CNC(=O)[C@H]([C@@H](C)O)NC(=O)[C@H](CCC(=O)O)NC(=O)[C@@H]4CCCN4C(=O)[C@H](CC(=O)O)NC3=O)C(=O)N[C@@H](CC(C)C)C(=O)N3CCC[C@@H]3C(=O)N2C1 [Example 83, {[&^1Pro((4S)-NH-Palmitoyl)-Gln-Cys(&^2)-Asp-Pro-Glu-Thr-Gly-Glu-Cys(&^3)-Leu-D-Pro&^1][&^2(1,2-phenylenediyl)dimethylene&^3]}] | < 1 | –
CCCCCCCCCCCC(=O)N[C@H]1C[C@H]2C(=O)N[C@@H](CCC(N)=O)C(=O)N[C@H]3CSCc4ccccc4CSC[C@H](NC(=O)[C@H](CCC(=O)O)NC(=O)CNC(=O)[C@H]([C@@H](C)O)NC(=O)[C@H](CCC(=O)O)NC(=O)[C@@H]4CCCN4C(=O)[C@H](CC(=O)O)NC3=O)C(=O)N[C@@H](CC(C)C)C(=O)N3CCC[C@@H]3C(=O)N2C1 [Example 85, {[&^1Pro((4S)-NH-Lauryl)-Gln-Cys(&^2)-Asp-Pro-Glu-Thr-Gly-Glu-Cys(&^3)-Leu-D-Pro&^1][&^2(1,2-phenylenediyl)dimethylene&^3]}] | < 1 | –
CC/C=C\C/C=C\C/C=C\CCCCCCCC(=O)N[C@H]1C[C@H]2C(=O)N[C@@H](CCC(N)=O)C(=O)N[C@H]3CSCc4ccccc4CSC[C@H](NC(=O)[C@H](CCC(=O)O)NC(=O)CNC(=O)[C@H]([C@@H](C)O)NC(=O)[C@H](CCC(=O)O)NC(=O)[C@@H]4CCCN4C(=O)[C@H](CC(=O)O)NC3=O)C(=O)N[C@@H](CC(C)C)C(=O)N3CCC[C@@H]3C(=O)N2C1 [Example 86, {[&^1Pro((4S)-NH-α-linolenyl)-Gln-Cys(&^2)-Asp-Pro-Glu-Thr-Gly-Glu-Cys(&^3)-Leu-D-Pro&^1][&^2(1,2-phenylenediyl)dimethylene&^3]}] | < 1 | –
CCCCCCCC/C=C/CCCCCCCC(=O)N[C@H]1C[C@H]2C(=O)N[C@@H](CCC(N)=O)C(=O)N[C@H]3CSCc4ccccc4CSC[C@H](NC(=O)[C@H](CCC(=O)O)NC(=O)CNC(=O)[C@H]([C@@H](C)O)NC(=O)[C@H](CCC(=O)O)NC(=O)[C@@H]4CCCN4C(=O)[C@H](CC(=O)O)NC3=O)C(=O)N[C@@H](CC(C)C)C(=O)N3CCC[C@@H]3C(=O)N2C1 [Example 87, {[&^1Pro((4S)-NH-elaidyl)-Gln-Cys(&^2)-Asp-Pro-Glu-Thr-Gly-Glu-Cys(&^3)-Leu-D-Pro&^1][&^2(1,2-phenylenediyl)dimethylene&^3]}] | 1 to 100 | –
CCCCCCCC/C=C\CCCCCCCC(=O)N[C@H]1C[C@H]2C(=O)N[C@@H](CCC(N)=O)C(=O)N[C@H]3CSCc4ccccc4CSC[C@H](NC(=O)[C@H](CCC(=O)O)NC(=O)CNC(=O)[C@H]([C@@H](C)O)NC(=O)[C@H](CCC(=O)O)NC(=O)[C@@H]4CCCN4C(=O)[C@H](CC(=O)O)NC3=O)C(=O)N[C@@H](CC(C)C)C(=O)N3CCC[C@@H]3C(=O)N2C1 [Example 88, {[&^1Pro((4S)-NH-oleyl)-Gln-Cys(&^2)-Asp-Pro-Glu-Thr-Gly-Glu-Cys(&^3)-Leu-D-Pro&^1][&^2(1,2-phenylenediyl)dimethylene&^3]}] | < 1 | –
CCCCCCCCCCCCCCCCCCCCCC(=O)N[C@H]1C[C@H]2C(=O)N[C@@H](CCC(N)=O)C(=O)N[C@H]3CSCc4ccccc4CSC[C@H](NC(=O)[C@H](CCC(=O)O)NC(=O)CNC(=O)[C@H]([C@@H](C)O)NC(=O)[C@H](CCC(=O)O)NC(=O)[C@@H]4CCCN4C(=O)[C@H](CC(=O)O)NC3=O)C(=O)N[C@@H](CC(C)C)C(=O)N3CCC[C@@H]3C(=O)N2C1 [Example 89, {[&^1Pro((4S)-NH-behenyl)-Gln-Cys(&^2)-Asp-Pro-Glu-Thr-Gly-Glu-Cys(&3)-Leu-D-Pro&^1][&^2(1,2-phenylenediyl)dimethylene&^3]}] | < 1 | –
CCCCCCCCCCCCCCCCCCCC(=O)N[C@H]1C[C@H]2C(=O)N[C@@H](CCC(N)=O)C(=O)N[C@H]3CSCc4ccccc4CSC[C@H](NC(=O)[C@H](CCC(=O)O)NC(=O)CNC(=O)[C@H]([C@@H](C)O)NC(=O)[C@H](CCC(=O)O)NC(=O)[C@@H]4CCCN4C(=O)[C@H](CC(=O)O)NC3=O)C(=O)N[C@@H](CC(C)C)C(=O)N3CCC[C@@H]3C(=O)N2C1 [Example 90, {[&^1Pro((4S)-NH-arachidyl)-Gln-Cys(&^2)-Asp-Pro-Glu-Thr-Gly-Glu-Cys(&^3)-Leu-D-Pro&^1][&^2(1,2-phenylenediyl)dimethylene&^3]}] | < 1 | –
CCCCCCCCCCCCCCCCCC(=O)NCCCC[C@@H]1NC(=O)[C@H]2CCCN2C(=O)[C@H](CC(C)C)NC(=O)[C@@H]2CSCc3ccccc3CSC[C@H](NC(=O)[C@H](CCC(N)=O)NC1=O)C(=O)N[C@@H](CC(=O)O)C(=O)N1CCC[C@H]1C(=O)N[C@@H](CCC(=O)O)C(=O)N[C@@H]([C@@H](C)O)C(=O)NCC(=O)N[C@@H](CCC(=O)O)C(=O)N2 [Example 91, {[&^1Lys(N^6-Stearyl)-Gln-Cys(&^2)-Asp-Pro-Glu-Thr-Gly-Glu-Cys(&^3)-Leu-D-Pro&^1][&^2(1,2-phenylenediyl)dimethylene&^3]}] | < 1 | –
CCCCCCCCCCCCCCCCCC(=O)N[C@H]1CCCCNC(=O)[C@H]2CCCN2C(=O)[C@H](CC(C)C)NC(=O)[C@@H]2CSCc3ccccc3CSC[C@H](NC(=O)[C@H](CCC(N)=O)NC1=O)C(=O)N[C@@H](CC(=O)O)C(=O)N1CCC[C@H]1C(=O)N[C@@H](CCC(=O)O)C(=O)N[C@@H]([C@@H](C)O)C(=O)NCC(=O)N[C@@H](CCC(=O)O)C(=O)N2 [Example 92, {[Stearyl-Lys(&^1)-Gln-Cys(&^2)-Asp-Pro-Glu-Thr-Gly-Glu-Cys(&^3)-Leu-D-Pro&^1][&^2(1,2-phenylenediyl)dimethylene&^3]}] | – | < 1
CCCCCCCCCCCCCCCCCCCC(=O)N[C@H]1C[C@H]2C(=O)N[C@@H](CCC(N)=O)C(=O)N[C@H]3CSCC4(COC4)CSC[C@H](NC(=O)[C@H](CCC(=O)O)NC(=O)CNC(=O)[C@H]([C@@H](C)O)NC(=O)[C@H](CCC(=O)O)NC(=O)[C@@H]4CCCN4C(=O)[C@H](CC(=O)O)NC3=O)C(=O)N[C@@H](CC(C)C)C(=O)N3CCC[C@@H]3C(=O)N2C1 [Example 95, {[&^1Pro((4S)-NH-Arachidyl)-Gln-Cys(&^2)-Asp-Pro-Glu-Thr-Gly-Glu-Cys(&^3)-Leu-D-Pro&^1][&^2(3,3-oxetanediyl)dimethylene&^3]}] | < 1 | –
